Measurements: patent US8273553B2, “Production of growth hormone in serum-free cell culture medium for mammalian cells” (Ares Trading S.A., priority 2004, dated 2012)
Where two headings read alike, the source gives them in different places.

Columns and labels:
[1] = system: hGH expressing C127 cells; experiment: rhGH productivity of hGH expressing C127 cells in roller bottles, DMEM supplemented with trace elements (Example 1); type: cell-based, murine; conditions: for productivity increase, amino acid added together with the metals: Zn 0.5 μM, Cu 0.02 μM, Ferric Citrate 4.8 μM plus Gln 4.8 mM or Cys 0.29 mM; for productivity increase at the assayed concentration (in words): 10 μM in DMEM; for average productivity increase compared to control: 10 μM continuously added to DMEM, production phase 14 days; for % INCREASE OF PRODUCTIVITY: single ion in DMEM at growth medium concentration: Zn 1.50300, Cu 0.02560, Se 0.11400, Co 0.00840 μM
Method: The addition of the different supplements assayed (metal solutions etc.) in different experiments was carried out directly on fresh culture medium.
Genetically modified C127 murine cells (ATCC CRL 1616) were used for the expression of the recombinant human growth hormone (rhGH). The vector is based on BPV69T comprising the pBR322 multiple cloning site and comprising 1.6 kb of the rhGH minigene under the control of mouse metallothionein-1 (MT-1) promoter. Cultures derived from one Working Cell Bank obtained from different rhGH production batches were used in the experiments.
Cell cultures were kept incubated at 36° C.±0.5° C. and 0.4 rpm in 2125 cm^2 roller bottles containing 375 mL±15 mL of culture medium or in 1700 cm cm^2 roller bottles containing 300 mL of culture medium.
Culture medium used for the rhGH production phase was DMEM with 4.5 g/L glucose buffered with sodium bicarbonate (3.7 g/L).
Measurement of rhGH in the culture medium was carried out daily by reverse-phase HPLC titration:
Chromatography conditions are: • Elution by gradient: starting with a mixture phase A/phase B 60/40 ending at phase A/phase B 20/80. Gradient complete in 5 minutes (slightly variable depending on instrumentation in use) • Injection volume 50 μliters • Detection: UV absorbance at 215 nm. • P Calibration curve: r-hGH standard at 10, 50, 100, 120 and 150 μg/ml
The r-hGH concentration of a sample is determined by comparison with standard r-hGH concentrations.
Productivity is expressed as mg of rhGH per roller bottle. Raw data are rhGH concentration in the harvest (as measured by HPLC) and total number of roller bottles harvested. Typically a roller bottle during harvest phase contains around 10^9 cells.

[2] = pH in a range of 6.5 to 8.5; cited from earlier work
[3] = system: r-hGH producing cells of working cell bank 15 (WCB15); experiment: r-hGH productivity in six-well plates (P6 system), DMEM with additions (Example 2); type: cell-based; conditions: for average productivity, % of control: duplicate; for response μg/well/hrvst / response as % “−1−1−1”: Cr 2.5 nM, Ni 1 nM in DMEM, average of 14 harvests; for response as % “−1−1−1”: relative to no addition; for % increase of hGH productivity: 6-well system
Method: The experiments were carried out using the working cell bank 15 (WCB15), which is now in current use in normal production.
Scale-down screening experiments were carried out in six-well plates COSTAR P6 of treated CELLBIND polystyrene (CORNING catalogue No. 3335) supplied with 5 mL of culture medium per well. In this case P6 plates were seeded with cells taken from the subculture 3 (standard manufacturing process) to an approximate density of 5×10^5 viable cells/well and then incubated at 37° C., within controlled atmosphere of CO2 at 5%, with standard growth medium or under 13% CO2 when changing to DMEM production medium modified as per the specific experimental plan.
(§1) Measurement of r-hGH in the culture medium was carried out daily by the currently approved reverse-phase HPLC titration.
In other experiments, metal trace elements were added to the DMEM in three concentrations and tested for effects on r-hGH productivity in 6-well plates. Each concentration was tested in duplicate and the average value was calculated. In all cases the concerned salt was prepared as 1000× stock solution from which the corresponding aliquots were taken and added to the medium.

[4] = system: r-hGH producing cells of working cell bank 15 (WCB15); type: cell-based; conditions: for Product. up to H14 / Product. up to H25: relative to control
Method: According to the approved work instructions, cell cultures were kept incubated at 36° C.±0.5° C. and 0.4 rpm in 1700 cm^2 roller bottles containing 400 mL±20 mL of culture medium.
as §1

[5] = system: cell monolayer of rhGH-producing cultures; experiment: peeling-off: detachment of the cell monolayer from the roller bottles; conditions: roller bottles with CDX, second part of harvest period

## N[C@@H](CSSC[C@H](N)C(=O)O)C(=O)O [cystine, L-cystine]
[1]
  productivity increase, amino acid added together with the metals: 69.9%

## hGH: single polypeptide chain of 191 amino acids having two disulfide bonds
[2]
  solubility in aqueous buffers: > 10 µg/mL

## O.O.O.O.O.O.O.O.O.O.O.O.O=S(=O)([O-])[O-].O=S(=O)([O-])[O-].[Cr+3].[K+] [Cr, Chromium Potassium Sulfate (K[Cr(SO6H4)2(H2O)2].6H2O)]
[3]; 1 nM in DMEM
  average productivity, % of control: 102.0%
[3]; 10 nM in DMEM
  average productivity, % of control: 102.8%
[3]; 100 nM in DMEM
  average productivity, % of control: 97.8%
[3]; Co 5 mcrM
  response μg/well/hrvst: 253.6 μg/well/hrvst
  response as % “−1−1−1”: 99.8%
[1]
  productivity increase at the assayed concentration (in words): Neither Barium nor Chromium showed productivity increase

## O.O.O.O.O.O.O=[N+]([O-])[O-].O=[N+]([O-])[O-].[Ni+2] [Ni, Nickel Nitrate (Ni(NO3)2.6H2O)]
[3]; 1 nM in DMEM
  average productivity, % of control: 103.1%
[3]; 10 nM in DMEM
  average productivity, % of control: 102.1%
[3]; 100 nM in DMEM
  average productivity, % of control: 98.6%
[3]; Co 5 mcrM
  response μg/well/hrvst: 257.0 μg/well/hrvst
  response as % “−1−1−1”: 101.2%

## O.O.O.O.O.O.[Cl-].[Cl-].[Co+2] [Co, Cobalt Chloride (CoCl2.6H2O)]
[4]; Co 1 mcrM added to DMEM
  Product. up to H14: 107%
  Product. up to H25: 102%
[4]; Co 2 mcrM added to DMEM
  Product. up to H14: 110%
  Product. up to H25: 102%
[4]; Co 5 mcrM added to DMEM
  Product. up to H14: 113%
  Product. up to H25: 101%
[4]; Co 10 mcrM added to DMEM
  Product. up to H14: 117%
  Product. up to H25: 104%
[3]; 2^3 factorial design, Co 5 mcrM
  statistical analysis of effect on productivity (in words): significant effect on productivity
[3]; Co 5 mcrM
  response μg/well/hrvst: 272.1 μg/well/hrvst
  response as % “−1−1−1”: 107.1%
[1]
  average productivity increase compared to control: 32.4%
  % INCREASE OF PRODUCTIVITY: −3.20%
[1]; cobalt continuously added (10 μM)
  rhGH productivity increase compared to control, continued induction: 32.5%
[1]; cobalt intermittently added (20 μM CoCl2.6H2O)
  rhGH productivity increase compared to control, intermittent induction: 9%

## NC(=O)CC[C@H](N)C(=O)O [glutamine, L-glutamine]
[1]
  productivity increase, amino acid added together with the metals: 81.1%

## O.O.O.O.O.O=S(=O)([O-])[O-].[Cu+2] [Cu, Copper Sulfate (CuSO4.5H2O)]
[1]; Copper 0.02 μM in DMEM
  increase in productivity: 32.1%±9.4%
[1]; Zinc 0.5 μM and Ferric Citrate 4.8 μM constant
  optimal supplementation concentration in DMEM: 25.6 nM
[1]
  % INCREASE OF PRODUCTIVITY: 37.50%

## O.O.O.O.O.O=[Se]([O-])[O-].[Na+].[Na+] [Se, Sodium Selenite (Na2SeO3.5H2O)]
[3]; 1 nM in DMEM
  average productivity, % of control: 101.5%
[3]; 10 nM in DMEM
  average productivity, % of control: 102.4%
[3]; 500 nM in DMEM
  average productivity, % of control: 101.4%
[1]
  % INCREASE OF PRODUCTIVITY: −3.10%

## O.O.O.O.O.O.O.O.O=S(=O)([O-])[O-].O=S(=O)([O-])[O-].O=S(=O)([O-])[O-].[Cd+2].[Cd+2].[Cd+2] [Cd, Cadmium Sulphate (CdSO4.8/3H2O)]
[4]; Cd 100 nM, roller bottles, two independent experiments
  increase in r-hGH productivity over the control: 12-15%
[3]; 1 nM in DMEM
  average productivity, % of control: 100.8%
[3]; 10 nM in DMEM
  average productivity, % of control: 103.6%
[3]; 100 nM
  increase of productivity: 20%
[3]; 100 nM in DMEM
  average productivity, % of control: 120.6%

## [Sn] [Sn]
[3]; 1 nM in DMEM
  average productivity, % of control: 101.8%
[3]; 10 nM in DMEM
  average productivity, % of control: 97.7%
[3]; 100 nM in DMEM
  average productivity, % of control: 96.5%
[3]; highest tested concentrations
  effect of higher concentrations on productivity (in words): higher concentrations seem to reduce productivity

## [Mn] [Mn]
[3]; 1 nM in DMEM
  average productivity, % of control: 101.3%
[3]; 10 nM in DMEM
  average productivity, % of control: 103.8%
[3]; 100 nM in DMEM
  average productivity, % of control: 101.8%

## Methyl-β-Cyclodextrin [CDX]
[4]; CDX 116 mg/L (0.1 mM), Cadmium 0.1 micromolar, Cobalt 1 micromolar
  productivity relative to the control: 104%
[3]; CDX 25 mg/L, 0.02 mM
  % increase of hGH productivity: 2%
[3]; CDX 50 mg/L, 0.04 mM
  % increase of hGH productivity: 4%
[3]; CDX 80 mg/L, 0.07 mM
  % increase of hGH productivity: 5%
[3]; CDX 116 mg/L, 0.1 mM
  % increase of hGH productivity: 7%
[3]; CDX only (FIG. 19)
  increase in productivity: 7%
[5]
  peeling off in the roller bottles (visual observation): much less peeling off

## O.O.O.O.O.O.O.O=S(=O)([O-])[O-].[Zn+2] [Zn, Zinc sulfate (ZnSO4.7H2O)]
[1]; Ferric Citrate 4.8 μM and Copper 0.025 μM constant
  concentration at which maximum productivity level (plateau) is observed: above 200 nM
[1]; Zinc 0.5 μM in DMEM
  increase in productivity: 16.8%±1.6%
[1]; Zinc 1.5 μM in DMEM
  increase in productivity: 10.3%±5.0%
[1]; Zinc above 200 nM, Ferric Citrate 4.8 μM, Copper 0.025 μM
  productivity at plateau over the average control value: about 60%
[1]
  % INCREASE OF PRODUCTIVITY: 12.10%

## O.O.[Ba+2].[Cl-].[Cl-] [Ba, Barium Chloride (BaCl2.2H2O)]
[3]; 1 nM in DMEM
  average productivity, % of control: 103.1%
[3]; 10 nM in DMEM
  average productivity, % of control: 101.9%
[3]; 100 nM in DMEM
  average productivity, % of control: 98.9%
[1]
  average productivity increase compared to control: 1.1%
  productivity increase at the assayed concentration (in words): Neither Barium nor Chromium showed productivity increase
